The test system of assay [1] is MMP-9. Kind of assay: MMP-9 in culture supernatant of alveolar macrophages (BAL cells), ELISA. The conditions noted are these: human alveolar macrophages; for MMP-9 expression: 5 μM final, day 3 (day 4 the same), culture supernatant. Type of assay: cell-based. How it is done:
(§1) For this purpose, human alveolar macrophages (AMs) were obtained via bronchial lavage. The AMs were seeded into Mono Mac 6 medium+10% FCS onto a 24 well “low attachment” plate (Costar) using 1×10^6 cells in a volume of 1 ml per each sample. Additions of vitamin A liposomes or of the pure substances, respectively, were carried out. Cells for RT-PCR or culture supernatant for protein determinations by means of ELISA, respectively, were harvested from parallel samples each on day 1, day 3, and day 4. Specifically, the following samples were prepared: • β=control sample, AMs in medium only • Lipleer=empty liposomes • LipVitA=liposomes containing vitamin A (retinoic acid, Sigma R-2625) 5 μM final • VitA=pure vitamin A (retinoic acid, Sigma R-2625) 5 μM final • LipPalm=liposomes containing all-trans retinol palmitate (Sigma R-3375) 3 μM final • Palmitat=all-trans retinol palmitate (Sigma R-3375) 3 μM final
(§2) The culture supernatants were monitored for MMP-9 and TMP-1 content using commercial ELISA kits (Amersham Pharmacia). In each case the numerals refer to ng/ml culture supernatant based on 1×10^6 cells.
(§3) • RPMI 1640 (Biochrom # F1415, Berlin), L-glutamine 2 mM (Gibco # 25030-024), penicillin 200 U/ml, streptomycin 200 μg/ml (Gibco # 15140-114), non-essential amino acids (NEAA) 1-2x (Gibco # 11140-35), OPI supplement (contains oxalacetate, Na pyruvate and insulin) 10 ml per 1 liter (Sigma # O-5003). Following filtration through a Gabro ultrafilter U 2000 (Martinsried, Germany) to remove LPS addition of 10% FCS, LPS tested. • Costar low attachment 24 well plates # 3473 (Bodenheim, Germany) 1×10^6 BAL cells (=cells obtained by brocho-alveolar lavage containing alveolar macrophages in an amount of about 80%) or 1.5×10^6 PBMCs (=peripheral blood mononuclear cells isolated via LymphoPrep gradient (Nycomed, Norway)), respectively, in a volume of 1 ml were used per sample. Pretreat the 24 well low attachment cell culture plate according to the manufacturer's instructions. For this purpose, fill the respective wells with 1 ml of medium and incubate for 20 min at 37° C. in an incubator. Afterwards remove the medium and replace by cell suspension. Add the liposomes loaded with vitamin A in a final concentration of 5×10^−6 M. Prepare parallel samples with pure vitamin A and empty liposomes as controls. For the measurement of MMP-9 and TIMP-1 in the culture supernatant and for determination of mRNA expression incubate the cells in an incubator for three days at 37° C. Afterwards resuspend the cells carefully and first remove 2×10^4 cells per PCR lysate for lysis in 200 μl of RNAclean (AGS, Heidelberg, Germany)in an Eppendorf reaction vial. Store these PCR lysates at −20° C. until further use. Transfer the remaining cell suspension into an Eppendorf vial and centrifuge for 5 min at 14,000×g. Remove the supernatant, transfer into a fresh vial and store at −80° C. until measurement. Summary of the Samples: • 1. BAL cells or PBMCs, respectively without any addition • 2. BAL cells or PBMCs, respectively + empty liposomes • 3. BAL cells or PBMCs, respectively + liposomes vitA 5 μM final • 4. BAL cells or PBMCs, respectively pure vitA 5 μM final Determinations of MMP-9 and TIMP-1 on the Protein Level by ELISA
(§4) For the measurement of MMP-9 and TIMP-1 in cell culture supernatants commercially available ELISA kits of Amersham Pharmacia Biotech company (Freiburg, Germany) are used. […]

The subject of assay [2] is TIMP-1. Kind of assay: TIMP-1 in culture supernatant of alveolar macrophages (BAL cells), ELISA. Type of assay: cell-based. Conditions: human alveolar macrophages; for TIMP-1 expression: 5 μM final, day 3 (day 4 the same), culture supernatant. How it is done:
as §1, §2, §3, §4
(ELISA stands for enzyme-linked immunosorbent assay.)

The subject of assay [3] is MMP-9. The assay is described as follows: MMP-9 expression in blood monocytes (PBMCs). Type of assay: cell-based, human. How it is done:
as §3, with “Afterwards resuspend the cells carefully and first remove 2×10^4 cells per PCR lysate for lysis in 200 μl of RNAclean (AGS, Heidelberg, Germany)in an Eppendorf reaction vial. Store these PCR lysates at −20° C. until further use. Transfer the remaining cell suspension into an Eppendorf vial and centrifuge for 5 min at 14,000×g. Remove the supernatant, transfer into a fresh vial and store at −80° C. until measurement. Summary of the Samples: • 1. BAL cells or PBMCs, respectively without any addition • 2. BAL cells or PBMCs, respectively + empty liposomes • 3. BAL cells or PBMCs, respectively + liposomes vitA 5 μM final • 4. BAL cells or PBMCs, respectively pure vitA 5 μM final Determinations of MMP-9 and TIMP-1 on the Protein Level by ELISA” left out

The test system of assay [4] is TIMP-1. The assay is described as follows: TIMP-1 expression in blood monocytes (PBMCs). Type of assay: cell-based, human. How it is done:
as §3, with “Afterwards resuspend the cells carefully and first remove 2×10^4 cells per PCR lysate for lysis in 200 μl of RNAclean (AGS, Heidelberg, Germany)in an Eppendorf reaction vial. Store these PCR lysates at −20° C. until further use. Transfer the remaining cell suspension into an Eppendorf vial and centrifuge for 5 min at 14,000×g. Remove the supernatant, transfer into a fresh vial and store at −80° C. until measurement. Summary of the Samples: • 1. BAL cells or PBMCs, respectively without any addition • 2. BAL cells or PBMCs, respectively + empty liposomes • 3. BAL cells or PBMCs, respectively + liposomes vitA 5 μM final • 4. BAL cells or PBMCs, respectively pure vitA 5 μM final Determinations of MMP-9 and TIMP-1 on the Protein Level by ELISA” left out

Assay [5] deals with enzymes having gelatinase activities. The conditions noted are these: Park and Kim, Mol. Cells 1999; cited from earlier work.
Another assay has as its system metalloproteases. The conditions noted are these: rat osteoblasts; Overall 1995; cited from earlier work.
The subject of another assay is TMP-1. The conditions noted are these: rat osteoblasts, depending on the dose; Overall 1995; cited from earlier work.
In another assay the test system is TIMP. The conditions noted are these: Heath et al. 1990; cited from earlier work.
The next assay deals with MMP-9/TIMP-1. Kind of assay: MMP-9/TIMP-1 ratio of alveolar macrophages (BAL cells). Type of assay: cell-based, human. Conditions: day 3. The source says:
There is increasing evidence that disorders in the protease/protease inhibitor equilibrium are the cause underlying the pathogenesis of chronic lung diseases. […] This is particularly true for patients suffering from chronic obstructive bronchitis (COPD). Among the MMPs in COPD, it is particularly the secretion of MMP-9 metalloprotease which is increased in the airways and alveoles and can no longer be completely neutralized by its natural antagonist TIMP-1 (tissue inhibitor of metalloprotease). […] An important criterion to determine the degree of the disturbance of the protease/antiprotease equilibrium is the proteinase-to-inhibitor ratio: MMP-9/TIMP-1.
For this purpose, human alveolar macrophages (AMs) were obtained via bronchial lavage. The AMs were seeded into Mono Mac 6 medium+10% FCS onto a 24 well “low attachment” plate (Costar) using 1×10^6 cells in a volume of 1 ml per each sample. Additions of vitamin A liposomes or of the pure substances, respectively, were carried out. Cells for RT-PCR or culture supernatant for protein determinations by means of ELISA, respectively, were harvested from parallel samples each on day 1, day 3, and day 4. […]
The culture supernatants were monitored for MMP-9 and TMP-1 content using commercial ELISA kits (Amersham Pharmacia). […]

Setting [6] is: day 1 following vitamin A addition.

Results on 3 compounds are retold here after US7476380B2, “Methods for treating illnesses of the tracheo-bronchial tract, especially chronic obstructive pulmonary disease (COPD)” (GSE-Forschungszentrum fur Umwelt und Gesundheit GmbH, priority 2000, dated 2009).

Regarding `CC1=C(/C=C/C(C)=C/C=C/C(C)=C/C(=O)O)C(C)(C)CCC1` [free vitamin A, all-trans retinoic acid], the MMP-9 expression entry with MMP-9 [1] is “strongly reduced”; in the assay on MMP-9 [1] (listed as retinoic acid) it was “clear inhibition”. For the same compound, the TIMP-1 expression entry is “increase” with TIMP-1 [2] and “stimulation” with TIMP-1 [2] (listed as retinoic acid). Moreover, the “expression of MMP-9 metalloprotease” value in the assay with MMP-9 [3] is “clear inhibition”. In addition, the TIMP-1 inhibitor expression result with TIMP-1 [4] is reported as “stimulation”. In addition, in [5], the “activity of enzymes having gelatinase activities (metalloproteases)” value is listed as “increased”. Besides, in the assay with metalloproteases, the expression of metalloproteases result is on record as “increases”. Also, the “mRNA levels of TMP-1” value in the assay with TMP-1 is “clearly reduced”.
Consider `CC1=C(/C=C/C(C)=C/C=C/C(C)=C/CO)C(C)(C)CCC1` [retinol], for which the MMP-9 expression entry with MMP-9 [1] is on record as “clear inhibition”. For the same compound, the TIMP-1 expression result in the assay with TIMP-1 [2] was “stimulation”. For the same compound, the “expression of MMP-9 metalloprotease” value in the assay with MMP-9 [3] is given as “clear inhibition”. For the same compound, the TIMP-1 inhibitor expression entry in the assay with TIMP-1 [4] is recorded as “stimulation”. Besides, the TIMP levels with TIMP was 0.
vitamin A: the MMP-9 expression result in the assay on MMP-9 [1] is on record as “significantly inhibits”. Besides, the “MMP-9 on the protein level, day 1” value with MMP-9 [1] (setting [6]) is reported as “no effect”. Moreover, in the assay on TIMP-1 [2], the TIMP-1 expression result is listed as “significantly stimulates”. Further, the “TIMP-1 on the protein level, day 1” value in the assay on TIMP-1 [2] (setting [6]) was “no effect”. Further, the “effect on the MMP-9/TIMP-1 ratio” value in the assay with MMP-9/TIMP-1 was “drastic effect”.
